Data set [1] has as its system Pectobacterium carotovorum SCC1. The data set is described as follows: Inhibition of soft rot lesion in tobacco leaf. It counts as in vivo.
For data set [2] the test system is unchanged. The experiment in a line: Inhibition of soft rot lesion in cucumber leaf. Type of data set: in vivo.
Data set [3] relates to Colletotrichum orbiculare. Type of data set: in vivo. Conditions: cucumber; for Number of anthractic lesions in first leaf: control 12.5; for Number of anthractic lesions in second leaf: control 96.8.
In data set [4] the test system is Pectobacterium carotovorum SCC1. The data set is described as follows: Inhibition of naturally occurring soft rot in Chinese cabbage hydrocultured in summer. It counts as in vivo. Conditions: for Appearance of soft rot: 20 ppm, sprayed, examined 1 week later, control 58. From the text:
After spraying test compounds to hydrocultured Chinese cabbage, naturally occurring soft rot was examined 1 week later.

The next data set relates to Colletotrichum acutatum. The data set is described as follows: Inhibition of anthracnose in red pepper fruit after soil drench. Conditions: control 50.
The subject of the next data set is cucumber leaf. The experiment in a line: Promotion of growth of cucumber leaf. Conditions: Cucumis sativus, read-out: Width of leaf.
Data set [5] deals with PR-1α promoter fused to the GUS gene. The experiment in a line: PR-1α-GUS activity in tobacco leaf. It counts as in vivo. Particulars: control 54. The procedure: After adding 960 μL of stop buffer (0.2M sodium carbonate) to make 1 mL, fluorescence was measured using a TKO 100 fluorometer (Hoefer Scientific Instruments, USA).
In data set [6] the test system is anthracnose-causing Colletotrichum orbiculare. It counts as in vivo. Particulars: tobacco leaf, control 240.3.
For a further data set, the system named is PDF1.2 gene. Particulars: background art; cited from earlier work.
Another data set relates to PR-1 gene. Particulars: background art; cited from earlier work.

Where two headings read alike, the source gives them in different places.

The values that follow come from patent US20170204102A1, “AGRICULTURAL AGENT CONTAINING 2,5-DIKETOPIPERAZINE DERIVATIVE AS ACTIVE INGREDIENT” (NAPRO BIOTEC INC., priority 2010, published 2017).

As for `CCC(C)C1NC(=O)C2CCCN2C1=O` (stereo not shown) [Compound No. 28, 3-(1-methylpropyl)hexahydropyrrolo[1,2-a]pyrazin-1,4-dione], the melting point (usually the temperature of the solid-liquid transition) lay within 104 to 105 °C. For the same molecule, in [1] (1 ppm, Table 4, control 100), the Area of lesion stood at 12.5%. The Area of lesion in [1] (10 ppm, Table 4, control 100) was determined as 82.5%. Also, in [1] (100 ppm, Table 4, control 100), the Area of lesion stood at 2.5%. In data set [2] (1 ppm, Table 7, control 100), this molecule displayed an Area of lesion of 55%. The same molecule gave an Area of lesion in data set [2] (10 ppm, Table 7, control 100) of 83%. Further, the Area of lesion in data set [2] (100 ppm, Table 7, control 100) stood at 65%. Besides, in data set [3] (0.1 ppm), the “Number of anthractic lesions in first leaf” value (“Number … in first leaf” below) is 5.3 and the “Number of anthractic lesions in second leaf” value (from here on “Number … in second leaf”) turned out to be 55.3. In [3] (1 ppm), the “Number … in first leaf” value came out at 2.3 and the “Number … in second leaf” value is 62.3. In addition, in data set [3] (10 ppm), the “Number … in first leaf” value was found to be 12.3 and the “Number … in second leaf” value was found to be 87.3. Further, in data set [3] (100 ppm), the “Number … in first leaf” value worked out at 10.8 and the “Number … in second leaf” value is given as 77.3. Moreover, in data set [4], the “Appearance of soft rot” value was 49%. In the data set with Colletotrichum acutatum (1 ppm), the Appearance of anthracnose came to 0%. In addition, in the data set on Colletotrichum acutatum (10 ppm), the Appearance of anthracnose amounted to 25%. For the same molecule, in the data set with Colletotrichum acutatum (100 ppm), the Appearance of anthracnose is 0%. In addition, in the data set with cucumber leaf, the response vs control in vivo at 1 ppm was determined as 100%, the response vs control in vivo at 10 ppm came to 120% and the response vs control in vivo at 100 ppm amounted to 129%.

Regarding `O=C1NCC(=O)N2CCCC12` (stereo not shown) [Compound No. 29, hexahydropyrrolo[1,2-a]pyrazin-1,4-dione], the Area of lesion was found to be 27.5% in [1] (1 ppm, Table 4, control 100); 0% in [1] (10 ppm, Table 4, control 100); 0% in data set [1] (100 ppm, Table 4, control 100); 43% in data set [2] (1 ppm, Table 7, control 100); 63% in data set [2] (10 ppm, Table 7, control 100); 90% in [2] (100 ppm, Table 7, control 100). The “Number … in first leaf” value in data set [3] (0.1 ppm) was 0.8; in data set [3] (1 ppm), 5.0; in data set [3] (10 ppm), 10.0; in [3] (100 ppm), 5.0. The “Number … in second leaf” value was found to be 51.3 in data set [3] (0.1 ppm), 35.8 in data set [3] (1 ppm), 55.5 in data set [3] (10 ppm) and 87.0 in [3] (100 ppm). Also, in data set [4], the “Appearance of soft rot” value is listed as 14%. Besides, the “Inhibitory effect against soft rot in Chinese cabbage (in words)” value in [4] (Table 11, FIG. 10) was “very superior inhibitory effect”. Besides, the Appearance of anthracnose with Colletotrichum acutatum (1 ppm), in the data set with Colletotrichum acutatum (10 ppm) and in the data set with Colletotrichum acutatum (100 ppm) was 0% each time. Also, the response vs control in vivo at 1 ppm in the data set on cucumber leaf is 100%. Also, the response vs control in vivo at 10 ppm in the data set on cucumber leaf came to 120%. Besides, the response vs control in vivo at 100 ppm in the data set with cucumber leaf worked out at 115%.

`CC(C)CC1NC(=O)CNC1=O` (stereo not shown) [Compound No. 2, 3-(2-methylpropyl)-2,5-diketopiperazine] showed a melting point of 241 to 244 °C. In addition, the Area of lesion in data set [1] (1 ppm, Table 3, control 87.5) was 32.5%. Moreover, the Area of lesion in data set [1] (10 ppm, Table 3, control 87.5) was found to be 40%. Further, the Area of lesion in data set [1] (100 ppm, Table 3, control 87.5) worked out at 60%. For the same molecule, in data set [2] (1 ppm, Table 6, control 100), the Area of lesion is listed as 92.5%. This molecule had an Area of lesion in [2] (10 ppm, Table 6, control 100) of 82.5%. This molecule had an Area of lesion in data set [2] (100 ppm, Table 6, control 100) of 50%.

For `CC(C)C1NC(=O)C2CCCN2C1=O` (stereo not shown) [Compound No. 26, 3-isopropylhexahydropyrrolo[1,2-a]pyrazin-1,4-dione], the PR-1α-GUS activity in data set [5] (0.1 ppm) is recorded as 34,967 nM MU/10 mg/h. Also, in [5] (1 ppm), the PR-1α-GUS activity was 27,497 nM MU/10 mg/h. In data set [6] (0.1 ppm), the “Number of anthractic lesions” value was found to be 67.1. Also, the “Number of anthractic lesions” value in data set [6] (1 ppm) amounted to 63.3. Also, in the data set on cucumber leaf, the response vs control in vivo at 1 ppm was determined as 112%, the response vs control in vivo at 10 ppm was 128% and the response vs control in vivo at 100 ppm is 129%.

On to `CSC(=O)c1cccc2nnsc12` [BTH, benzo-1,2,3-thiadiazole-7-carbothioic acid S-methyl ester, reference compound], for which the “Induction of expression of the PDF1.2 gene” value with PDF1.2 gene was “does not induce the expression”. In addition, the Area of lesion in [1] (1 ppm, Table 3, control 87.5) turned out to be 52.5%; in [1] (1 ppm, Table 4, control 100), 95%; in data set [1] (1 ppm, Table 5, control 73.75), 50%; in [1] (10 ppm, Table 3, control 87.5), 52.5%; in data set [1] (10 ppm, Table 4, control 100), 95%; in data set [1] (10 ppm, Table 5, control 73.75), 50%. The Area of lesion in data set [1] (100 ppm, Table 3, control 87.5) is reported as 52.5%; in data set [1] (100 ppm, Table 4, control 100) it was 95%; in data set [1] (100 ppm, Table 5, control 73.75) it was 50%; in data set [2] (1 ppm, Table 6, control 100) it was 100%; in data set [2] (1 ppm, Table 7, control 100) it was 90%; in data set [2] (1 ppm, Table 8, control 100) it was 100%. The Area of lesion in [2] (10 ppm, Table 6, control 100) is 100%; in [2] (10 ppm, Table 7, control 100), 90%; in [2] (10 ppm, Table 8, control 100), 100%; in data set [2] (100 ppm, Table 6, control 100), 100%; in data set [2] (100 ppm, Table 7, control 100), 90%; in [2] (100 ppm, Table 8, control 100), 100%. For the same molecule, the “Induction of expression of the PR-1 gene” value in the data set on PR-1 gene is reported as “induces the expression of the PR-1 gene”. For the same molecule, the PR-1α-GUS activity in [5] (1 ppm) is 21,015 nM MU/10 mg/h. Also, the “Number of anthractic lesions” value in [6] (1 ppm) came out at 58.3. For the same molecule, the “Number … in first leaf” value in data set [3] (0.1 ppm), in data set [3] (1 ppm), in [3] (10 ppm) and in [3] (100 ppm) was 0.8 in each case. Also, the “Number … in second leaf” value in data set [3] (0.1 ppm), in data set [3] (1 ppm), in [3] (10 ppm) and in data set [3] (100 ppm) was 100.3 in each case. Moreover, the values for the Appearance of anthracnose in the data set on Colletotrichum acutatum (1 ppm), with Colletotrichum acutatum (10 ppm) and with Colletotrichum acutatum (100 ppm) were 25%, 0% and 0%, respectively. The response vs control in vivo at 1 ppm in the data set on cucumber leaf came out at 93.8%. For the same molecule, in the data set on cucumber leaf, the response vs control in vivo at 10 ppm was 90.5%. In addition, in the data set on cucumber leaf, the response vs control in vivo at 100 ppm was 92%.

For `CC1NC(=O)C2CCCN2C1=O` (stereo not shown) [Compound No. 25, 3-methylhexahydropyrrolo[1,2-a]pyrazin-1,4-dione], the Area of lesion was determined as 15% in data set [1] (1 ppm, Table 4, control 100); 12.5% in [1] (10 ppm, Table 4, control 100); 0% in data set [1] (100 ppm, Table 4, control 100); 78% in data set [2] (1 ppm, Table 7, control 100); 73% in [2] (10 ppm, Table 7, control 100); 85% in data set [2] (100 ppm, Table 7, control 100). The “Number … in first leaf” value worked out at 3.8 in [3] (0.1 ppm), 1.3 in [3] (1 ppm), 1.0 in data set [3] (10 ppm) and 2.0 in [3] (100 ppm). For the same molecule, the “Number … in second leaf” value came to 37.0 in data set [3] (0.1 ppm), 46.0 in data set [3] (1 ppm), 22.5 in data set [3] (10 ppm) and 27.8 in data set [3] (100 ppm). Moreover, in data set [4], the “Appearance of soft rot” value is on record as 19%. The Appearance of anthracnose came to 0% with Colletotrichum acutatum (1 ppm), 25% in the data set on Colletotrichum acutatum (10 ppm) and 25% in the data set with Colletotrichum acutatum (100 ppm). In addition, the response vs control in vivo at 1 ppm in the data set on cucumber leaf is 121%. Besides, the response vs control in vivo at 10 ppm with cucumber leaf stood at 119%. In the data set on cucumber leaf, the response vs control in vivo at 100 ppm worked out at 123%.
